Experimental data reported in publication doi:10.1101/2024.12.03.626679, “Structure of the SMYD2-PARP1 Complex Reveals Both Productive and Allosteric Modes of Peptide Binding” (bioRxiv, 2024).
pIC50: −log10 of the molar value. No end group written: not given here.

Tests used:
[1] = tested on: histone H4; test: Antibody-based methyltransferase assay on H4; assay type: biochemical; conditions: versus wild-type SMYD2; 30°C overnight, Western blot
Method: (§1) An antibody-based methyltransferase assay was carried out similarly to a previously described method ([29]). Reactions were performed by incubating SMYD2 proteins with H3 or H4 in the presence of AdoMet at 30°C overnight in a reaction buffer containing 50 mM Tris pH 8.5, 25 mM NaCl, 5% glycerol, and 2 mM DTT. Lysine methylation was detected by Western blot analysis using antibodies against mono-, di-, and trimethylated lysine (ab23366 & ab76118, Abcam). Enzymatic activities were quantified based on chemiluminescence using a CCD gel imager.

[2] = tested on: histone H3; test: Antibody-based methyltransferase assay on H3; assay type: biochemical; conditions: versus wild-type SMYD2; 30°C overnight, Western blot
Method: as §1

[3] = tested on: PARP1(518–1014); test: Methyltransferase activity of SMYD2 proteins on PARP1(518–1014), MTase-Glo assay; assay type: biochemical, human; conditions: versus wild-type SMYD2
Method: Steady-state enzyme kinetics was carried out using the MTase-Glo methyltransferase assay according to the manufacturer’s instructions (Promega). […] After incubating the reactions with the MTase-Glo reagent and MTase-Glo Detection Solution, the amount of produced AdoHcy was determined by measuring luminescent signals using a microplate reader. The reactions were quantified using an AdoHcy standard curve that correlates the luminescence intensity to the AdoHcy concentration. Enzyme kinetic constants (KM, kcat, and Hill coefficient) were determined using initial velocity measurements at varying substrate concentrations by fitting them to a standard Michaelis-Menten kinetics model and the Hill equation.

[4] = biological target: T1, SMYD2-F184A / PARP1(518–1014) interaction (Homo sapiens, UniProt Q9NRG4, F184A); test: ELISA inhibition of SMYD2-PARP1(518–1014) interaction by PARP1 peptide, F184A mutant; conditions: SMYD2 pre-incubated with peptide, four-parameter logistic fit, triplicate, read-out: IC50 of inhibition of F184A mutant binding to coated PARP1 protein
T1 construct: Full-length human SMYD2 (residues 1–433) (SMYD2-WT); 6xHis-SUMO (N, cleaved yes); made in house
Method: ELISA solid-phase protein binding experiments were performed according to the previously described protocol ([22]). ELISA plates were prepared by coating PARP1, H3, or H4 onto the wells in a coating buffer containing 10 mM HEPES pH 7.5, 0.1 M KCl, and 3 mM MgCl2. After blocking the plates with 1% BSA, binding experiments were performed by adding different concentrations of SMYD2 proteins into the wells. For PARP1 peptide inhibition experiments, SMYD2 proteins were pre-incubated with the PARP1 peptide before being added to the wells. Bound SMYD2 proteins were probed with the anti-SMYD2 antibody (ab108217, Abcam), and the amount of binding was quantified using an HRP-conjugated secondary antibody (ab6721, Abcam) that generated a color signal from oxidizing the substrate 2,2′-azino-bis(3-ethylbenzthiazoline sulfonic acid). The absorbance of signals was measured at 420 nm using a microplate reader at 2-minute intervals for 15 minutes. The rate of change in absorbance obtained by linear regression was used to quantify the binding. IC50 and the concentration required for 50% saturation were obtained by fitting binding data using a four-parameter logistic regression model. For reciprocal binding experiments, SMYD2 proteins were coated onto the wells and bound PARP1 was detected by the anti-PARP1 antibody (ab191217, Abcam). All binding experiments were performed in triplicate.

T1 sequence (Q9NRG4 whole entry F184A, the tested form may be a part): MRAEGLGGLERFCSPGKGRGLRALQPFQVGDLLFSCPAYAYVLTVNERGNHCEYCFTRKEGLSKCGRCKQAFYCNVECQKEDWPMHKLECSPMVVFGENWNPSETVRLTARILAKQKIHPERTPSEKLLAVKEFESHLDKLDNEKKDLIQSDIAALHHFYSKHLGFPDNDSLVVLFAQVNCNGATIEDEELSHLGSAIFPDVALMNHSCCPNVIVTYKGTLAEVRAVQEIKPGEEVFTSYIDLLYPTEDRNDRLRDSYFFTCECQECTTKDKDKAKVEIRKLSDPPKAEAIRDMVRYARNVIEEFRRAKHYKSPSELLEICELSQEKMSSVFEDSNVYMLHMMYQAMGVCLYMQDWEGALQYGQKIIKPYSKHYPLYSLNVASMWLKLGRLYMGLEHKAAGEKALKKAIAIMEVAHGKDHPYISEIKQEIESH

| Substance | methylation of H4 [1] | methylation of H3 [2] | methylation level of PARP1 protein [3] | pIC50 [4] |
| --- | --- | --- | --- | --- |
| F184A mutant: SMYD2 mutant targeting the target lysine access channel at the active site | abolishes the methyltransferase activity | abolishes the methyltransferase activity | abolishes the methyltransferase activity |  |
| L351A/W356A mutant: SMYD2 secondary-binding-site mutant targeting both subsites M and L | marked increase | marked increase | notable increase |  |
| RMKLTLKGGAAVD [PARP1 peptide] |  |  |  | ~6.82 |
